Blank lines part the entries; values can stand above or below the molecule they belong to.
Assays:
[1] = Topical alprostadil patch on laser-perforated penis skin; assay type: in vivo, human; settings: three 2 mm spots, 5 J/cm^2; patch held 45 minutes
From the text: The duration of the pulse was approximately 300 μs. The spot size was approximately 2 mm, with an energy fluence of 5 J/cm^2. Single pulses were used. Three 2 mm diameter spots were created on a flaccid penis. Subsequent to ablation a pharmaceutical preparation of alprostadil (Caverject from Pharmacia & Upjohn, Kalamazoo, Mich.) was applied to a small patch consisting of tissue paper. The patch was applied to the multiple perforated areas of the skin on the then flaccid penis and held there with adhesive tape for 45 minutes. After approximately 35 minutes, the patient obtained an erection that was sustained for more than 1 hour.

[2] = Permeation of radiolabelled corticosterone or DNA through laser-irradiated human skin in diffusion cells; assay type: in vitro ADME; settings: 2 mm spot, donor removed after 15 minutes
Protocol: Pieces of human skin were placed in diffusion cells and irradiated with a single pulse of radiant energy produced by an Er:YAG laser. The spot size was 2 mm and the energy of the pulse was measured with a calibrated energy meter. After irradiation, the diffusion cells were placed in a 37 degrees Celsius heating block. Phosphate buffered saline was added to the receptor chamber below the skin and a small stir bar was inserted in the receptor chamber to keep the fluid continually mixed. Control skin was left unirradiated. Small volumes of radiolabelled compounds (either corticosterone or DNA) were then added to the donor chamber and left for 15 minutes before being removed (in the case of corticosterone) or were left for the entire duration of the experiment (in the case of the DNA). Samples were then taken from the receptor chamber at various times after application of the test compound and measured in a scintillation or gamma counter.

[3] = In vivo blanching assay (chromameter skin redness) on laser-irradiated forearm spots; set-up: species or system human
From the text: In the case of the blanching assay, baseline skin color (redness) measurements were then taken of each spot using a Minolta CR-300 Chromameter (Minolta Inc., NJ). The Er:YAG laser was then used to ablate six 2 mm spots on one forearm, at energies of 40, 80 and 120 mJ. A spot (negative calorimeter control) directly adjacent to the laser irradiated spots remained untouched. Subsequently, a thin film of 1% hydrocortisone ointment was applied to six of the lased spots on the treatment arm. One untouched spot on the contralateral arm was administered a thin layer of Diprolene (β-methasone), which is a strong steroid that can permeate the intact stratum corneum in an amount sufficient to cause measurable skin blanching. An occlusive patch, consisting of simple plastic wrap, was fixed with gauze and dermatological tape over all sites on both arms and left in place for two hours, after which the administered steroids were gently removed with cotton swabs. […] Finally, the skin was clinically assessed for evidence of irritation at the 26 hour evaluation.

[4] = In vitro permeation study of tritiated water through lased human skin; assay type: in vitro ADME; settings: 50 mJ (1.6 J/cm^2) to 1250 mJ (40 J/cm^2); increase at low fluences up to about 5 J/cm^2, then more-or-less constant
From the text: Histology studies on rat and human skin, irradiated either in vivo or in vitro, show little or no evidence of ablation when Er:YAG laser pulse energies less than about 100-200 mJ are used. (See, e.g., FIG. 25).

[5] = Permeation of radiolabelled drugs through Er:YAG laser-irradiated human skin in Franz diffusion cells; assay type: in vitro ADME
From the text: The output of the Er:YAG laser was passed through an aperture to define it's diameter as 2 mm. Human skin, purchased from a skin bank, was positioned in Franz diffusion cells. The receptor chamber of the cell was filled with 0.9% buffered saline. A single pulse, of measured energy, was used to irradiate the skin in separate diffusion cells. Control skin was left unirradiated. […] In the case of γ-interferon, a 285 mJ pulse was used, and multiple samples were irradiated. […] In the case of cortisone, either 77 mJ or 117 mJ was used. After irradiation, a stirring magnet was place in the receptor chamber of the diffusion cells and the cells were placed in a heating block held at 37° C. […] The donor was left on the skin for the duration of the experiment. At various times post-drug-application, samples were taken from the receptor chamber and the amount of drug present was assayed with either a gamma-counter, or a liquid scintillation counter.

Molecule: CCN(CC)CC(=O)Nc1c(C)cccc1C [Lidocaine, lidocaine]
pain on insertion of 26G-0.5 needle into lased site (30% liquid lidocaine solution applied topically for two minutes after 60 mJ pulse): no observable pain
pain on full insertion of 22G-1 needle into lased site (30% liquid lidocaine solution, 6-minute anesthetic treatment after 60 mJ pulse): no observable pain

Molecule: CCCCC[C@H](O)/C=C/[C@H]1[C@H](O)CC(=O)[C@@H]1CCCCCCC(=O)O [alprostadil]
duration of erection [1]: more than 1 hour
time to erection [1]: approximately 35 minutes

permeation through irradiated skin versus unirradiated controls ([2]; 77 mJ/pulse (sub-ablative)): enhanced permeation
permeation through irradiated skin versus unirradiated controls ([2]; 117 mJ pulse): enhanced permeation
Molecule: C[C@]12C[C@H](O)[C@H]3[C@@H](CCC4=CC(=O)CC[C@@]43C)[C@@H]1CC[C@@H]2C(=O)CO [corticosterone]

Molecule: C[C@]12CCC(=O)C=C1CC[C@@H]1[C@@H]2[C@@H](O)C[C@@]2(C)[C@H]1CC[C@]2(O)C(=O)CO [hydrocortisone]
erythema (reddening) of skin, chromameter measurements ([3]; 1% hydrocortisone ointment on spots lased at 40, 80, 120 mJ, occluded two hours, 2-26 hours post-irradiation): reddening was less than that seen in the control spots
clinical assessment for irritation ([3]; 26 hour evaluation): no problems were seen

Molecule: [3H]O[3H] [tritiated water]
permeation through lased human skin [4]: increase in permeation

B1: γ-Interferon: radiolabelled gamma-interferon diluted in buffered saline (protein, UniProt P01579 24-161, looked up)
Interferon gamma: QDPYVKEAENLKKYFNAGHSDVADNGTLFLGILKNWKEESDRKIMQSQIVSFYFKLFKNFKDDQSIQKSVETIKEDMNVKFFNSNKKKRDDFEKLTNYSVTDLNVQRKAIHELIQVMAELSPAAKTGKRKRSQMLFRG
modifications: radiolabel
notes: radiolabelled gamma-interferon diluted in buffered saline
Permeability Constant, kp [5]: 9.74 +/− 2.05 ×10^−3 cm/hr

Source: patent publication US6443945B1, “Laser assisted pharmaceutical delivery and fluid removal” (Transmedica International, Inc., priority 1993, dated 2002)
